Measured values reported in US20230026856A1, “HETEROCYCLIC COMPOUNDS AND METHODS OF USE THEREOF” (SPARCBIO LLC, priority 2020, published 2023).

Legend:
KYSE-410 = assay: Cell proliferation assay panel (Cell Titer-Glo), KYSE-410; format: cell-based; conditions: Homo sapiens, 72 hr
Method: (§1) Potency of compounds was determined in cell proliferation assays in a panel of cancer cell lines. Cells were seeded in 384-well plates (Corning, Cat. #3765) at specified densities in 40 μL of culture medium and incubated overnight at 37° C. in a 5% CO2 incubator (culture conditions). With a robotic dispenser, serially diluted test compounds were added in a volume of 20 nL DMSO to wells in the culture plate to achieve the final desired concentrations of test compounds, and the cells were further incubated in culture conditions for 72 hr. The assay was terminated by addition of 25 μL of Cell Titer-Glo reagent (Promega, Madison, Wis.) to each well. Contents were mixed, the plate was incubated for 10 min at room temperature and luminescence was measured. The IC50 value of each test compound was calculated with XLFit curve fitting software. Results are shown in Table 4. ‘+++’ indicates IC50 values ≤300 nM, ‘++’ indicates IC50 values between 300 nM-3 μM, and ‘+’ indicates IC50 values ≥3 μM.

NCI-H2030 = assay: Cell proliferation assay panel (Cell Titer-Glo), NCI-H2030; format: cell-based; conditions: Homo sapiens, 72 hr
Method: as §1

SW1573 = assay: Cell proliferation assay panel (Cell Titer-Glo), SW1573; format: cell-based; conditions: Homo sapiens, 72 hr
Method: as §1

MIA PaCa-2 = assay: Cell proliferation assay panel (Cell Titer-Glo), MIA PaCa-2; format: cell-based; conditions: Homo sapiens, MIA PaCa-2, 72 h
Method: as §1

A549 = assay: Cell proliferation assay panel (Cell Titer-Glo), A549; format: cell-based; conditions: Homo sapiens, 72 hr
Method: as §1

NCI-H1373 = assay: Cell proliferation assay panel (Cell Titer-Glo), NCI-H1373; format: cell-based; conditions: Homo sapiens, 72 hr
Method: as §1

NCI-H358 = assay: Cell proliferation assay panel (Cell Titer-Glo), NCI-H358; format: cell-based; conditions: Homo sapiens, 72 hr
Method: as §1

NCI-H2122 = assay: Cell proliferation assay panel (Cell Titer-Glo), NCI-H2122; format: cell-based; conditions: Homo sapiens, 72 hr
Method: as §1

KRAS G12C protein = KRAS G12C protein (Homo sapiens, UniProt P01116, G12C); assay: Nucleotide exchange assay, Method III (TR-FRET, association of KRAS G12C with Raf-RBD, SOS1-mediated exchange); format: biochemical; conditions: overnight (18 hr) incubation with GDP-bound KRAS G12C
Outline: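 Compounds in 11-point 3-fold dilutions were preincubated 18 h at 23 °C with GDP-bound His-tagged KRAS G12C (25 nM in the 2× mix). SOS1/GTP was then added for 1 h at 23 °C, followed by FLAG-Raf-RBD with Tb-anti-FLAG/D2-anti-His for 2 h at room temperature. IC50 values came from non-linear regression of the TR-FRET signal.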

[1] = tested on: Phosphorylation of ERK in NCI-H358 cells; assay: pERK assay, Method II (homogeneous TR-FRET, phospho-ERK Thr202/Tyr204); format: cell-based; conditions: Homo sapiens, 4 hr compound treatment
Method: Method II. Phosphorylation of ERK was assessed by a homogeneous TR-FRET assay (Advanced phospho-ERK (Thr202/Tyr204) cellular kit; Cat. #64AERPEH, Cisbio). In brief, NCI-H358 cells were seeded in a 384-well culture plate at a density of 6000 cells in 40 μL medium/well and grown overnight at 37° C. and 5% CO2. Each test compound was dosed in duplicate in a 10-dose 3-fold titration starting at 10 μM or 2 μM. The culture plate was then incubated for 4 hr in the incubator. At the end of the compound treatment, the medium was removed, 35 μL of lysis buffer was added to each well, and the plate was agitated on a plate shaker for 40 mins at 4° C. An antibody cocktail of phospho-ERK1/2 Eu Cryptate antibody and Phospho-ERK1/2 d2 antibody was prepared by separately diluting the antibodies 20-fold with detection buffer and then mixing them together. 3.4 μL of antibody cocktail was dispensed to each well of an empty 384-well white ProxiPlus assay plate (Perkin Elmer), and the plate briefly centrifuged. 13.6 μL of cell lysate was then added to the antibody-containing wells, and the plate was briefly centrifuged and then incubated 2 hr at room temperature. The plate was read on a fluorescence plate reader (Envision2104, Perkin Elmer), with an excitation wavelength of 337 nm and emission wavelengths of 615 nm and 665 nm. The IC50 value of each test compound was calculated with XLFit curve fitting software. Results are shown in Table 6. ‘+++’ indicates IC50 values ≤300 nM, ‘++’ indicates IC50 values between 300 nM-3 μM, and ‘+’ indicates IC50 values ≥3 μM.

NCI-H358 cells = assay: 3D cell proliferation assay (Cell Titer-Glo 3D); format: cell-based; conditions: Homo sapiens, NCI-H358, 168 h, NCI-H358, 3D (ultra-low attachment); 7 days
Method: NCI-H358 cells (ATCC® CRL-5807™) were plated in a 384-well Black/Clear Round Bottom Ultra-Low Attachment Microplate (Corning) in medium (RPMI-1640+10% FBS) at a density of 1000 cells in 50 μL per well, then incubated overnight at 37° C. and 5% CO2. Cells were treated with test compounds at 9 concentrations within a specified concentration range (e.g., 0.5 nM-10 μM) for generation of dose response curves. Test compounds were prepared by 1:3 serial dilution in DMSO from a specified starting concentration (e.g., 20 μM, 2 μM or 0.2 μM) and then added to wells of the assay plate in a total volume of 150 nL DMSO. The cells were further incubated at 37° C. and 5% CO2 for 7 days. Cell viability was assessed by adding 40 μL of Cell Titer-Glo® 3D reagent (Cat. No.: G9683, Promega) to each well and reading luminescence after mixing and incubation of the samples. The IC50 value of each test compound was calculated with XLFit curve fitting software.

Sequence of KRAS G12C protein (P01116 1-188 isoform P01116-2 G12C): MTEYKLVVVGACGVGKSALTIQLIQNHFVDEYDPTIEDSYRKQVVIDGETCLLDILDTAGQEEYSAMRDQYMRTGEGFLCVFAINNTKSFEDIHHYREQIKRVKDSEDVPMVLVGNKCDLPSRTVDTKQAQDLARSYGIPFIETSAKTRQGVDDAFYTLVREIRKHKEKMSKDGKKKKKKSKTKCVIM

SMILES	IC50 (KYSE-410)	IC50 (NCI-H2030)	IC50 (SW1573)	IC50 (MIA PaCa-2)	IC50 (A549)	IC50 (NCI-H1373)	IC50 (NCI-H358)	IC50 (NCI-H2122)	IC50 (KRAS G12C protein)	IC50 [1]	IC50 (NCI-H358 cells)
C=CC(=O)N1CCN(c2c(C(=O)NC)c(=O)n(-c3c(C)ccnc3C(C)C)c3nc(-c4c(O)cccc4F)c(F)cc23)CC1 (single isomer, unassigned) [84 (Isomer B), 4-(4-acryloylpiperazin-1-yl)-6-fluoro-7-(2-fluoro-6-hydroxyphenyl)-1-(2-isopropyl-4-methylpyridin-3-yl)-N-methyl-2-oxo-1,2-dihydro-1,8-naphthyridine-3-carboxamide]	≥ 3000 nM	≥ 3000 nM	≥ 3000 nM	300 to 3000 nM	≥ 3000 nM	≥ 3000 nM	≤ 300 nM	≥ 3000 nM	–	–	–
C=CC(=O)N1CCN(c2c(S(C)(=O)=O)c(=O)n(-c3c(C)ccnc3C(C)C)c3nc(-c4c(O)cccc4F)c(F)cc23)CC1 (single isomer, unassigned) [123 (Isomer A), 4-(4-acryloylpiperazin-1-yl)-6-fluoro-7-(2-fluoro-6-hydroxyphenyl)-1-(2-isopropyl-4-methylpyridin-3-yl)-3-(methylsulfonyl)-1,8-naphthyridin-2(1H)-one]	≥ 3000 nM	300 to 3000 nM	≥ 3000 nM	300 to 3000 nM	≥ 3000 nM	≥ 3000 nM	≤ 300 nM	300 to 3000 nM	≤ 300 nM	≤ 300 nM	≤ 100 nM
